Laboratory results from patent US20240415914A1, “Water Dispersible Cannabinoid Compositions” (priority 2021, published 2024).
Like-named read-outs stand apart in the source and are kept apart here.

Tests used:
[1] = type: physicochemical; conditions: stored at room temperature (21-25° C.)
Procedure: At each time period, 0.05 g of powder was dissolved in 10 ml-15 of ethanol, diluted to fall within the analytical range, and injected into the LCMSMS for analysis.

[2] = Stability of cannabinoid and Vitamin E components of Beverage 2 (AB Red) stored at 8° C. and 21-25° C., LCMSMS over 570 days

With `Cc1c(C)c2c(c(C)c1OC(=O)CCC(=O)O)CC[C@@](C)(CCC[C@H](C)CCC[C@H](C)CCCC(C)C)O2` [α-Tocopheryl succinate] the “Stability in Powder Concentrate (content by LCMSMS)” value (“Stability in Powder Concentrate” below) ([1]; day 0) was 1.82 mg/g powder, the “Stability in Powder Concentrate” value ([1]; day 1) was 1.81 mg/g powder and the “Stability in Powder Concentrate” value ([1]; day 2) was 1.81 mg/g powder. The “Stability in Powder Concentrate” value ([1]; day 3) was 1.81 mg/g powder, the “Stability in Powder Concentrate” value ([1]; day 5) was 1.83 mg/g powder and the “Stability in Powder Concentrate” value ([1]; day 8) was 1.90 mg/g powder. For the same compound, the “Stability in Powder Concentrate” value ([1]; day 9) was 1.89 mg/g powder, the “Stability in Powder Concentrate” value ([1]; day 10) was 1.87 mg/g powder and the “Stability in Powder Concentrate” value ([1]; day 11) was 1.89 mg/g powder. The “Stability in Powder Concentrate” value ([1]; day 12) was 1.87 mg/g powder, the “Stability in Powder Concentrate” value ([1]; day 15) was 1.87 mg/g powder and the “Stability in Powder Concentrate” value ([1]; day 16) was 1.83 mg/g powder. For the same compound, the “Stability in Powder Concentrate” value ([1]; day 17) was 1.88 mg/g powder, the “Stability in Powder Concentrate” value ([1]; day 18) was 1.77 mg/g powder and the “Stability in Powder Concentrate” value ([1]; day 19) was 1.85 mg/g powder. For the same compound, the “Stability in Powder Concentrate” value ([1]; day 22) was 1.78 mg/g powder, the “Stability in Powder Concentrate” value ([1]; day 23) was 1.80 mg/g powder and the “Stability in Powder Concentrate” value ([1]; day 24) was 1.90 mg/g powder. For the same compound, the “Stability in Powder Concentrate” value ([1]; day 25) was 1.90 mg/g powder, the “Stability in Powder Concentrate” value ([1]; day 26) was 1.76 mg/g powder and the “Stability in Powder Concentrate” value ([1]; day 29) was 1.87 mg/g powder. For the same compound, the “Stability in Powder Concentrate” value ([1]; day 30) was 1.80 mg/g powder, the “Stability in Powder Concentrate” value ([1]; day 60) was 1.77 mg/g powder and the “Stability in Powder Concentrate” value ([1]; day 90) was 1.83 mg/g powder. For the same compound, the “Stability in Powder Concentrate” value ([1]; day 120) was 1.83 mg/g powder, the “Stability in Powder Concentrate” value ([1]; day 150) was 1.89 mg/g powder and the “Stability in Powder Concentrate” value ([1]; day 180) was 1.77 mg/g powder. For the same compound, the “Stability in Powder Concentrate” value ([1]; day 210) was 1.80 mg/g powder, the “Stability in Powder Concentrate” value ([1]; day 240) was 1.84 mg/g powder and the “Stability in Powder Concentrate” value ([1]; day 270) was 1.87 mg/g powder. The “Stability in Powder Concentrate” value ([1]; day 300) was 1.84 mg/g powder, the “Stability in Powder Concentrate” value ([1]; day 330) was 1.83 mg/g powder and the “Stability in Powder Concentrate” value ([1]; day 360) was 1.79 mg/g powder. The “Stability in Powder Concentrate” value ([1]; day 390) was 1.87 mg/g powder, the “Stability in Powder Concentrate” value ([1]; day 420) was 1.82 mg/g powder and the “Stability in Powder Concentrate” value ([1]; day 450) was 1.80 mg/g powder. The “Stability in Powder Concentrate” value ([1]; day 480) was 1.76 mg/g powder, the “Stability in Powder Concentrate” value ([1]; day 510) was 1.76 mg/g powder and the “Stability in Powder Concentrate” value ([1]; day 540) was 1.80 mg/g powder. The “Stability in Powder Concentrate” value ([1]; day 570) was 1.77 mg/g powder, the “Stability of Vitamin Es in AB Red” value ([2]; 8° C., 0 days) was 12.5 µg/mL and the “Stability of Vitamin Es in AB Red” value ([2]; 8° C., 1 days) was 11.7 µg/mL. For the same compound, the “Stability of Vitamin Es in AB Red” value ([2]; 8° C., 2 days) was 11.7 µg/mL, the “Stability of Vitamin Es in AB Red” value ([2]; 8° C., 3 days) was 11.7 µg/mL and the “Stability of Vitamin Es in AB Red” value ([2]; 8° C., 5 days) was 11.5 µg/mL. For the same compound, the “Stability of Vitamin Es in AB Red” value ([2]; 8° C., 8 days) was 12.6 µg/mL, the “Stability of Vitamin Es in AB Red” value ([2]; 8° C., 9 days) was 11.8 µg/mL and the “Stability of Vitamin Es in AB Red” value ([2]; 8° C., 10 days) was 12.6 µg/mL. For the same compound, the “Stability of Vitamin Es in AB Red” value ([2]; 8° C., 11 days) was 12.1 µg/mL, the “Stability of Vitamin Es in AB Red” value ([2]; 8° C., 12 days) was 12.7 µg/mL and the “Stability of Vitamin Es in AB Red” value ([2]; 8° C., 15 days) was 12.5 µg/mL. The “Stability of Vitamin Es in AB Red” value ([2]; 8° C., 16 days) was 11.5 µg/mL, the “Stability of Vitamin Es in AB Red” value ([2]; 8° C., 17 days) was 12.4 µg/mL and the “Stability of Vitamin Es in AB Red” value ([2]; 8° C., 18 days) was 11.9 µg/mL. The “Stability of Vitamin Es in AB Red” value ([2]; 8° C., 19 days) was 11.7 µg/mL, the “Stability of Vitamin Es in AB Red” value ([2]; 8° C., 22 days) was 11.9 µg/mL and the “Stability of Vitamin Es in AB Red” value ([2]; 8° C., 23 days) was 12.0 µg/mL. For the same compound, the “Stability of Vitamin Es in AB Red” value ([2]; 8° C., 24 days) was 12.2 µg/mL, the “Stability of Vitamin Es in AB Red” value ([2]; 8° C., 25 days) was 12.0 µg/mL and the “Stability of Vitamin Es in AB Red” value ([2]; 8° C., 26 days) was 12.5 µg/mL. The “Stability of Vitamin Es in AB Red” value ([2]; 8° C., 29 days) was 11.6 µg/mL, the “Stability of Vitamin Es in AB Red” value ([2]; 8° C., 30 days) was 12.4 µg/mL and the “Stability of Vitamin Es in AB Red” value ([2]; 8° C., 60 days) was 11.4 µg/mL. For the same compound, the “Stability of Vitamin Es in AB Red” value ([2]; 8° C., 90 days) was 11.5 µg/mL, the “Stability of Vitamin Es in AB Red” value ([2]; 8° C., 120 days) was 12.2 µg/mL and the “Stability of Vitamin Es in AB Red” value ([2]; 8° C., 150 days) was 11.5 µg/mL. The “Stability of Vitamin Es in AB Red” value ([2]; 8° C., 180 days) was 11.4 µg/mL, the “Stability of Vitamin Es in AB Red” value ([2]; 8° C., 210 days) was 11.4 µg/mL and the “Stability of Vitamin Es in AB Red” value ([2]; 8° C., 240 days) was 11.6 µg/mL. For the same compound, the “Stability of Vitamin Es in AB Red” value ([2]; 8° C., 270 days) was 11.5 µg/mL, the “Stability of Vitamin Es in AB Red” value ([2]; 8° C., 300 days) was 11.2 µg/mL and the “Stability of Vitamin Es in AB Red” value ([2]; 8° C., 330 days) was 11.7 µg/mL. The “Stability of Vitamin Es in AB Red” value ([2]; 8° C., 390 days) was 11.2 µg/mL, the “Stability of Vitamin Es in AB Red” value ([2]; 8° C., 420 days) was 11.0 µg/mL and the “Stability of Vitamin Es in AB Red” value ([2]; 8° C., 450 days) was 11.2 µg/mL. For the same compound, the “Stability of Vitamin Es in AB Red” value ([2]; 8° C., 480 days) was 10.9 µg/mL, the “Stability of Vitamin Es in AB Red” value ([2]; 8° C., 510 days) was 10.8 µg/mL and the “Stability of Vitamin Es in AB Red” value ([2]; 8° C., 540 days) was 10.9 µg/mL. The “Stability of Vitamin Es in AB Red” value ([2]; 8° C., 570 days) was 10.6 µg/mL, the “Stability of Vitamin Es in AB Red” value ([2]; 21-25° C., 0 days) was 12.5 µg/mL and the “Stability of Vitamin Es in AB Red” value ([2]; 21-25° C., 1 days) was 12.5 µg/mL. For the same compound, the “Stability of Vitamin Es in AB Red” value ([2]; 21-25° C., 2 days) was 12.0 µg/mL, the “Stability of Vitamin Es in AB Red” value ([2]; 21-25° C., 3 days) was 11.9 µg/mL and the “Stability of Vitamin Es in AB Red” value ([2]; 21-25° C., 5 days) was 11.9 µg/mL. For the same compound, the “Stability of Vitamin Es in AB Red” value ([2]; 21-25° C., 8 days) was 12.0 µg/mL, the “Stability of Vitamin Es in AB Red” value ([2]; 21-25° C., 9 days) was 11.7 µg/mL and the “Stability of Vitamin Es in AB Red” value ([2]; 21-25° C., 10 days) was 12.0 µg/mL. For the same compound, the “Stability of Vitamin Es in AB Red” value ([2]; 21-25° C., 11 days) was 12.0 µg/mL, the “Stability of Vitamin Es in AB Red” value ([2]; 21-25° C., 12 days) was 12.4 µg/mL and the “Stability of Vitamin Es in AB Red” value ([2]; 21-25° C., 15 days) was 11.6 µg/mL. The “Stability of Vitamin Es in AB Red” value ([2]; 21-25° C., 16 days) was 11.6 µg/mL, the “Stability of Vitamin Es in AB Red” value ([2]; 21-25° C., 17 days) was 12.6 µg/mL and the “Stability of Vitamin Es in AB Red” value ([2]; 21-25° C., 18 days) was 12.1 µg/mL. For the same compound, the “Stability of Vitamin Es in AB Red” value ([2]; 21-25° C., 19 days) was 11.9 µg/mL, the “Stability of Vitamin Es in AB Red” value ([2]; 21-25° C., 22 days) was 11.6 µg/mL and the “Stability of Vitamin Es in AB Red” value ([2]; 21-25° C., 23 days) was 12.7 µg/mL. For the same compound, the “Stability of Vitamin Es in AB Red” value ([2]; 21-25° C., 24 days) was 12.4 µg/mL, the “Stability of Vitamin Es in AB Red” value ([2]; 21-25° C., 25 days) was 11.9 µg/mL and the “Stability of Vitamin Es in AB Red” value ([2]; 21-25° C., 26 days) was 12.1 µg/mL. For the same compound, the “Stability of Vitamin Es in AB Red” value ([2]; 21-25° C., 29 days) was 12.4 µg/mL, the “Stability of Vitamin Es in AB Red” value ([2]; 21-25° C., 30 days) was 12.1 µg/mL and the “Stability of Vitamin Es in AB Red” value ([2]; 21-25° C., 60 days) was 11.7 µg/mL. The “Stability of Vitamin Es in AB Red” value ([2]; 21-25° C., 90 days) was 11.6 µg/mL, the “Stability of Vitamin Es in AB Red” value ([2]; 21-25° C., 120 days) was 11.5 µg/mL and the “Stability of Vitamin Es in AB Red” value ([2]; 21-25° C., 150 days) was 11.4 µg/mL. For the same compound, the “Stability of Vitamin Es in AB Red” value ([2]; 21-25° C., 180 days) was 12.3 µg/mL, the “Stability of Vitamin Es in AB Red” value ([2]; 21-25° C., 210 days) was 11.6 µg/mL and the “Stability of Vitamin Es in AB Red” value ([2]; 21-25° C., 240 days) was 11.6 µg/mL. The “Stability of Vitamin Es in AB Red” value ([2]; 21-25° C., 270 days) was 11.0 µg/mL, the “Stability of Vitamin Es in AB Red” value ([2]; 21-25° C., 300 days) was 11.4 µg/mL and the “Stability of Vitamin Es in AB Red” value ([2]; 21-25° C., 330 days) was 11.4 µg/mL. For the same compound, the “Stability of Vitamin Es in AB Red” value ([2]; 21-25° C., 390 days) was 10.8 µg/mL, the “Stability of Vitamin Es in AB Red” value ([2]; 21-25° C., 420 days) was 11.0 µg/mL and the “Stability of Vitamin Es in AB Red” value ([2]; 21-25° C., 450 days) was 11.2 µg/mL. The “Stability of Vitamin Es in AB Red” value ([2]; 21-25° C., 480 days) was 10.4 µg/mL, the “Stability of Vitamin Es in AB Red” value ([2]; 21-25° C., 510 days) was 10.6 µg/mL and the “Stability of Vitamin Es in AB Red” value ([2]; 21-25° C., 540 days) was 10.3 µg/mL. For the same compound, the “Stability of Vitamin Es in AB Red” value ([2]; 21-25° C., 570 days) was 10.6 µg/mL.
